Assay [1] relates to G protein cleavage in RSV virions. Description: Virion G protein of rgRSV-L208A grown in Vero cells (immunoblot). The class given is cell-based. The conditions noted are these: purified through sucrose. Here is the method: To test the infectivity of Vero-derived virus with an uncleavable G in HAE cultures, the L208A mutation was incorporated into the whole virus. rgRSV and rgRSV-L208A were grown in HeLa or Vero cells, purified by sucrose gradient, and their virion G proteins assessed by immunoblot (FIG. 7A). For FIG. 7A, the L208A mutant G protein gene was inserted into the full-length RSV genome cDNA, in place of the wt G protein. The mutant RSV was rescued and grown in HeLa or Vero cells, purified by centrifugation through a 35% sucrose cushion, and G protein assessed as before. […] The viruses were titrated on HeLa cells and equivalent infectious units used to inoculate HeLa or HAE cultures. […] For FIG. 7B, virus was titrated on HeLa cells and equivalent infectious units were used to inoculate HAE and HeLa in parallel. Virus-infected (green) cells were counted at 24 (HeLa) or 48 (HAE) hpi.
The full-length RSV cDNA construct, RW30 (Kwilas et al., J Virol (2010) 84:7770-7781), was used as the backbone for a modification of the G protein gene at amino acid 208 from a […] to an alanine. RW30 was digested with restriction enzymes EcoICRI and SacII (Thermo Fisher Scientific Waltham, Mass.) to remove the G gene, and the remaining vector was isolated from an 0.5% agarose gel following electrophoresis and eluted from the gel fragment with the Qiaex II gel elution kit (Qiagen, Valencia, Calif.). […]

For assay [2], the system named is RSV G protein cleavage in Vero cells. Description: Cleavage of mutant G proteins transiently expressed in Vero cells (immunoblot). Type of assay: cell-based. As to the method: The G gene in the region of amino acid 210 was modified by deleting stretches of amino acids in this region (200-211, 204-213, 206-215, 208-217, or 209-213). […] Most of the mutants almost completely ablate cleavage. They all share amino acids 208-211. However, A206-210 and A206-215, both of which bring together amino acids that can also serve as a cathepsin L cleavage site. For FIG. 6B, the mutated G protein genes were transiently expressed in Vero cells. 24 h post-transfection cells were harvested, lysed and proteins were separated by SDS-PAGE, blotted and probed with mAb to the G protein.
To identify which amino acids are important for cleavage, individual amino acids in and around this region were changed to alanine. These mutant G proteins were transiently expressed in Vero cells and assessed by immunoblot (FIG. 6C). For FIG. 6C, the mutated G protein genes were transiently expressed in Vero cells. 24 hours post-transfection cells were harvested, lysed and proteins were separated by SDS-PAGE, blotted and probed with mAb to the G protein.
The strain A2 G protein plasmid was mutagenized using synthetic double strand gBlock DNA (Integrated DNA Technologies). Van91I (Thermo Fisher) and Xho I (New England Biolabs) were used to digest plasmid and gBlock. Doubly-digested plasmid was isolated by agarose gel electrophoresis. Digested gBlock and eluted plasmid DNAs were ligated with T4 DNA ligase (Promega, Madison, Wis.), and transformed into One Shot MachI-T1 chemically competent bacteria (Life Technologies). Plasmids were extracted using HiSpeed or Plasmid Plus Maxi kits (Qiagen).
Wild type G or frG proteins were expressed in HeLa or Vero cells following plasmid transfection with FuGene HD (Promega) or Lipofectamine LTX (Life Technologies), respectively, in medium containing 2% FBS. In frG experiments, medium was collected and concentrated using Ultracel-10 K centrifugal filters (EMD Millipore, Billerica, Mass.). For other transfection experiments, Vero cells were transfected using Lipofectamine 3000 (Life Technologies) in medium containing 10% FBS. For all transfection experiments, cells were lysed and protein quantified by BCA assay. Equivalent HeLa or Vero cell lysate protein and equivalent volumes of concentrated proteins from the medium were analyzed by immunoblotting.

With “L208: RSV strain A2 G protein with alanine substitution for L208”, the “virion G protein cleavage” value in assay [1] is reported as “prevention of G protein cleavage”. Also, the “efficiency at inhibiting cleavage (rank among alanine substitutions)” value in assay [2] is “most efficient”. For the same substance, in assay [2] (24 hours post-transfection), the “resistance to cleavage of alanine substitution G protein mutants” value is given as “partially to nearly completely resistant to cleavage”.
